Assay [1] in a line: cytotoxicity in MITF-independent A375 cells – cell-based, CellTiter-Glo luminescence, dry powder, set 4, counter-screen for MITF inhibitor project, dose response (AID 624364).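 Further: A375 melanoma cells are MITF independent so this is a counter screen.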 The assay is classed as functional. The note with it: A-375. (Cellular ATP, detected with luciferase, serves as a proxy for viable cell number.)
Assay [2] can be described thus: viability loss in MITF-independent A375 cells – cell-based, CellTiter-Glo luminescence, dry powder, set 2, counter-screen for MITF inhibitor project, dose response (AID 624489).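 Further: actives are compounds lowering A375 viability meaning general cytotoxicity.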 The class given is functional. The note with it: A-375.
Another assay has as its target T1, Aminopeptidase N (Plasmodium falciparum FcB1/Columbia, UniProt O96935).
T1 sequence (O96935 whole entry): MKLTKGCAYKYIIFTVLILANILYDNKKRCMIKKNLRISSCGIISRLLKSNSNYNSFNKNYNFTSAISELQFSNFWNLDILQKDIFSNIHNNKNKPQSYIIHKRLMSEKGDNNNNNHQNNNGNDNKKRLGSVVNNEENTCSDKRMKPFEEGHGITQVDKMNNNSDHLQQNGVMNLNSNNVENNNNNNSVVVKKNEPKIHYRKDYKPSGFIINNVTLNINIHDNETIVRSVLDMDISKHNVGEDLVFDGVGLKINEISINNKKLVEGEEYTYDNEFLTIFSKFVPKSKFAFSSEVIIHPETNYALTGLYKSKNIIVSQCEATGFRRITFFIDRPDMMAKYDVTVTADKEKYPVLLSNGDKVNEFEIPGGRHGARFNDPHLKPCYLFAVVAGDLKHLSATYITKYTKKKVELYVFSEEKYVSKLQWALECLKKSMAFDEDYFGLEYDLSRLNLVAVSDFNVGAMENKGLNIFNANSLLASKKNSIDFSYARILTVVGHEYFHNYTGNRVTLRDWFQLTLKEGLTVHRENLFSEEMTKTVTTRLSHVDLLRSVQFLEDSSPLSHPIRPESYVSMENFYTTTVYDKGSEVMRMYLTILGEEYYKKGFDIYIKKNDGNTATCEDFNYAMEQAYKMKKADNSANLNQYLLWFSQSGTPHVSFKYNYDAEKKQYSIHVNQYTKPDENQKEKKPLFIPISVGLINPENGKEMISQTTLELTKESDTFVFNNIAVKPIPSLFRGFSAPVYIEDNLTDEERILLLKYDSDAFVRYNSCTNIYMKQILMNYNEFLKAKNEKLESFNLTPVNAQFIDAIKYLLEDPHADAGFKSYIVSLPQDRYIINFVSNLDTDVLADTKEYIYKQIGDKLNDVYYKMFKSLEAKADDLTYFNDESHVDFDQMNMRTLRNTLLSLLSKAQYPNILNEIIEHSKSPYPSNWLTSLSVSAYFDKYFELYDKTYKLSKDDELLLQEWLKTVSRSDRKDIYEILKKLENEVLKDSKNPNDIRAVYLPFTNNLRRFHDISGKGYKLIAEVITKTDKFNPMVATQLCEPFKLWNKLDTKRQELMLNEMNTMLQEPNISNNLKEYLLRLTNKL
Kind of assay: malaria alanyl aminopeptidase activity blockers – biochemical, fluorogenic H-Leu-NHMec substrate, 1536-well (AID 1445). Further details: species or system Plasmodium falciparum 3D7, 3D7.

Assay [3] addresses Endoplasmic reticulum aminopeptidase 1 (Homo sapiens, UniProt Q9NZ08). Put plainly: inhibition of human ERAP1 enzyme activity – biochemical, cherry-pick, set 2, plate reader, dose response (AID 743314).
The nature of assay [4]: rise of 2N DNA cells, HeLa – IC50, dose response (AID 1117349). The assay is classed as functional, cell-based.
A short description of assay [5]: CellTiter-Glo luminescence survival assay, SW480 colon tumor line, concentration-response curve, half-maximal inhibitory concentration (AID 1117338). The assay is classed as functional.
Assay [6] can be described thus: RKO cell viability reduction, dose response, CellTiter-Glo luminescence (AID 1117322). The assay is classed as functional.
The nature of assay [7]: cytotoxicity toward HCT116 cells – cell-based, CellTiter-Glo luminescence, IC50, dose response (AID 1117332). The class given is functional. As to conditions: HCT-116.
The nature of assay [8]: SNU-C1 cell viability reduction, dose response, CellTiter-Glo luminescence (AID 1117323). The assay is classed as functional, cell-based.
Assay [9] can be described thus: cytotoxicity toward Colo320 cells – cell-based, CellTiter-Glo luminescence, IC50, dose response (AID 1117334). As to conditions: COLO 320. The assay is classed as functional.
A short description of assay [10]: rise of 4N DNA cells, HeLa – IC50, dose response (AID 1117351). The assay is classed as functional, cell-based.
Assay [11] in a line: cytotoxicity toward HT-29 cells – cell-based, CellTiter-Glo luminescence, IC50, dose response (AID 1117330). The class given is functional.
Assay [12] is described as follows: Reduced DLD-1 viability, concentration-response, CellTiter-Glo luminescence (AID 1117352). The assay is classed as functional.
Assay [13] is described as follows: HCT116 cell viability decrease, GSK3B pretreatment – CellTiter-Glo, IC50, dose response (AID 1117339). The note with it: HCT-116. The assay is classed as functional.
The next assay addresses Major prion protein (Homo sapiens, UniProt P04156). The assay is classed as functional, cell-based.
A short description of assay [14]: HGIII-sPLA2 enzyme inhibition potency – biochemical, QFRET, IC50, dose response (AID 743457).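 Further: green fluorescence rise as the enzyme cleaves BODIPY PC-A2 in liposomes.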
Assay [15] can be described thus: growth inhibition of yeast DHODH-expressing 3D7 parasites – SYBR Green, dry powder samples, dose response (AID 1159570).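 Further: parasite growth measured after 72 hours of compound exposure.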 The assay is classed as functional, cell-based.
A short description of assay [16]: toxicity to human HepG2 hepatoma cells – cell-based, plate reader, dry powder samples, cytotoxicity control, dose response (AID 1159569).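 Further: inhibitor potency with signal falling toward the positive control level.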 The class given is functional.
A short description of assay [17]: P. falciparum Dd2 growth inhibitors, dose response, SYBR Green, cherry-picked samples (AID 1159567). The assay is classed as functional, cell-based.
Assay [18] can be described thus: Dd2 malaria parasite growth inhibition potency – SYBR Green, dry powder samples, dose response (AID 1159566).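 Further: potency for growth inhibition with lower SYBR green DNA signal.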 The assay is classed as functional, cell-based.
A short description of assay [19]: growth inhibition of PfATP4-mutant resistant parasites – NITD609-resistant line, SYBR Green, dry powder, dose response (AID 1159571).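 Further: parasites synchronized at ring stage by sorbitol before testing.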 The class given is functional, cell-based.
Assay [20] is described as follows: OVCAR-3 cell viability loss – plate reader, dry powder samples, PAX8 inhibitor project, dose response (AID 743044). The class given is functional, cell-based.
Assay [21] is described as follows: IGROV1 cell killing – plate reader, dry powder samples, PAX8 inhibitor project, dose response (AID 743043). The class given is functional, cell-based. As to conditions: IGROV-1.
The nature of assay [22]: OVCAR8 cell viability loss – plate reader, dry powder samples, PAX8 project, dose response (AID 743197). The assay is classed as functional, cell-based. As to conditions: OVCAR-8.
The nature of assay [23]: toxicity to human hepatoma HepG2 cells – cell-based, cherry-picked samples, cytotoxicity control, dose response (AID 1159577). The class given is functional.

SMILES strings stand for the structures. The source made the active and inactive calls. A value given as a limit tells only on which side of the number the result lay.

The AC50 is the midpoint of the concentration-response curve, whichever way the signal moves. The IC50 is the concentration at which inhibition is half-maximal.

For the compound `O=C1C(NS(=O)(=O)c2ccccc2)=C(N2CCCCC2)C(=O)c2ccccc21`, the AC50 in assay [1] and in assay [2] was > 70 µM (inactive) throughout.
For the compound `CCCc1cc(=O)oc2c(CN(CC)CC)c(O)c(Cl)cc12`, on Aminopeptidase N, the IC50 is 37 µM (active). The AC50 in assay [3] is 7.13 µM (active).
Consider `O=[N+]([O-])c1ccc(Oc2ccc(N=C=S)cc2)cc1` [NITROSCANATE], for which the IC50 in assay [4] is > 10 µM (inactive); in [5], 1.63 µM (active); in [6], 2.34 µM (active); in [7] it was 2.77 µM (active); in assay [8], 4.33 µM (active); in assay [9] it was 1.46 µM (active). Besides, the IC50 in assay [10] was > 10 µM (inactive); in [11], 1.07 µM (active); in assay [12], 2.1 µM (active); in assay [13] it was 1.47 µM (active).
As to `Cc1nc(SCC(=O)NNC(=O)c2ccc(F)cc2)c2ccccc2n1`, the IC50 on Major prion protein is 2.26 µM (active); in “cells” it was > 138 µM (inactive).
Turning to `Cc1cc(C(=O)NN=C(S)NC2CCCCC2)cs1`, the IC50 in assay [14] is > 122 µM (inactive).
The same measure, in the same setting: to `CCn1c(S)nnc1-c1cccn(Cc2ccc(Cl)cc2Cl)c1=O` belongs > 122 µM (inactive).
Take `COc1cccc(NC(=O)N2[C@H](CO)[C@@H](c3ccccc3)[C@H]2CNCC(C)C)c1`: the AC50 in assay [15] was 1.44 µM (active); in assay [16], 43.5 µM (active); in [17] it was 1.75 µM (active); in [18], 1.58 µM (active); in [19], 1.64 µM (active).
As to `Cc1ccc(-c2ccc([C@@H]3[C@H](CO)N4CCCCN(C(=O)Nc5cccc(F)c5)C[C@@H]34)cc2)cc1`, the results for the AC50 in [20], in [21] and in [22] were 7.83 µM (active), 18.1 µM (active) and > 70 µM (inactive), respectively.
On to `CCCC#Cc1ccc([C@H]2[C@H](CO)N3CCCCN(CC4CCOCC4)C[C@@H]23)cc1`, for which the AC50 is 3.68 µM (active) in [17] and 26.9 µM (active) in [23].
